Activity calls are given as the source filed them. The rule behind the calls is not given here.
Test system: Nucleic Acid
Experiment: Binding affinity to human c-MYC Pu24I G-quadruplex structure assessed as stabilization of G-quadruplex by NMR spectroscopy
Assay type: nucleic-acid assay

SMILES | Activity
COc1cccc2c1C(=O)c1c(O)c3c(c(O)c1C2=O)C[C@@](O)(C(C)=O)C[C@@H]3O[C@H]1C[C@H](N)[C@H](O)[C@H](C)O1 | Active
CC[n+]1c(-c2ccccc2)c2cc(N)ccc2c2ccc(N)cc21 | Active
C[n+]1ccc(-c2c3nc(c(-c4cc[n+](C)cc4)c4ccc([nH]4)c(-c4cc[n+](C)cc4)c4ccc([nH]4)c(-c4cc[n+](C)cc4)c4nc2C=C4)C=C3)cc1 | Active
CN1CCN(c2ccc3[nH]c(-c4ccc5[nH]c(-c6ccc(O)cc6)nc5c4)nc3c2)CC1 | Active

Source: ChEMBL document CHEMBL1240302, “Small-molecule interaction with a five-guanine-tract G-quadruplex structure from the human MYC promoter” (Nat Chem Biol, 2005)
